Assay results as given in ChEMBL document CHEMBL4715815, “Design, synthesis and biological evaluation of 7H-pyrrolo[2,3-d]pyrimidin-4-amine derivatives as selective Btk inhibitors with improved pharmacokinetic properties for the treatment of rheumatoid arthritis” (Eur J Med Chem, 2018).
Values after ≈ are worked out from the molar mass of the structure shown. Active and inactive are the calls of the source. The rule behind the calls is not given here.

Experiments:
HEK293 = test: Cytotoxicity against human HEK293 cells assessed as reduction in cell viability incubated for 72 hrs by MTT assay; type: ADME, cell-based; details: HEK293, 72 h
[1] = Aqueous solubility of compound at 1 mg; details: aqueous medium
THP-1 = test: Cytotoxicity against human THP-1 cells assessed as reduction in cell viability incubated for 72 hrs by MTT assay; type: ADME, cell-based; details: THP-1, 72 h
L02 = test: Cytotoxicity against human L02 cells assessed as reduction in cell viability incubated for 72 hrs by MTT assay; type: ADME, cell-based; details: L02, 72 h
[2] = molecular target: Tyrosine-protein kinase BTK (Homo sapiens, UniProt Q06187); test: Inhibition of BTK (unknown origin) by caliper mobility shift assay
Chain of Tyrosine-protein kinase BTK (Q06187 whole entry): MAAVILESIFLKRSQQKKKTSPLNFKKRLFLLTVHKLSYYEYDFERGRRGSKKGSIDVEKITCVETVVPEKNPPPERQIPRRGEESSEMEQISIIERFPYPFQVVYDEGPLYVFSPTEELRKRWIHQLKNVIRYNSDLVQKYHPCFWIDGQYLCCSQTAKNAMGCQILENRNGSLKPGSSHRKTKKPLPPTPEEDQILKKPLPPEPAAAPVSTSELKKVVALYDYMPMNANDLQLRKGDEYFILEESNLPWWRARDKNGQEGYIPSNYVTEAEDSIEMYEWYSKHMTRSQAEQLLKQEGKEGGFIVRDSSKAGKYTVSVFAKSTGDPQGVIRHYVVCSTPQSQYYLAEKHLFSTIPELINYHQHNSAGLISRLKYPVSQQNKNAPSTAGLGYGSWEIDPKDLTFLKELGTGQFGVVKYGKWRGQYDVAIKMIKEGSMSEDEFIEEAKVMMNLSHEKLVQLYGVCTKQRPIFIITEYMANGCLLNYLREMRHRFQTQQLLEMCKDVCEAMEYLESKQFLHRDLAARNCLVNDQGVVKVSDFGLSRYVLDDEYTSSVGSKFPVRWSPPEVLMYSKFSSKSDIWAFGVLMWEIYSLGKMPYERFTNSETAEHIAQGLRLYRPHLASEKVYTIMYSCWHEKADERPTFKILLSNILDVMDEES

[3] = Inhibition of recombinant human PI3K using PIP2 as substrate incubate for 15 mins by LANCE assay
Mus musculus = test: Antiarthritic activity in DBA/1J mouse model of collagen-induced arthritis at 20 mg/kg, po administered for 30 days and measured on day 30; type: functional, organism-based; details: time 30.0 day

| SMILES | IC50 (HEK293) [µM] | solubility [1] [µg/mL] | IC50 (THP-1) [µM] | IC50 (L02) [µM] | IC50 [2] [µM] | IC50 [3] [µM] | Activity (Mus musculus) |
| --- | --- | --- | --- | --- | --- | --- | --- |
| C=CS(=O)(=O)N1CCC(Cn2nc(-c3ccc(Oc4ccccc4)cc3)c3c(N)ncnc32)CC1 | 1.6 | < 10 | 18.3 | 19.1 | – | – | – |
| C=CC(=O)N1CCC(Cn2cc(-c3ccc(Oc4ccccc4)cc3)c3c(N)ncnc32)CC1 | 13.3 | < 10 | 16.7 | 16 | 0.00609 | – | – |
| C=CC(=O)N1CCC(CCn2cc(-c3ccc(Oc4ccccc4)cc3)c3c(N)ncnc32)CC1 | 10.2 | < 10 | 18.9 | 15.2 | – | – | – |
| C=CC(=O)N1CCC(CCn2cc(-c3ccc4c(c3)OCO4)c3c(N)ncnc32)CC1 | – | < 100 | – | – | – | – | – |
| C=CC(=O)N1CCC(Cn2cc(-c3ccc(OCc4ccccc4)cc3)c3c(N)ncnc32)CC1 | – | < 10 | – | – | 0.077 | – | – |
| C=CC(=O)N1CCC[C@@H](n2nc(-c3ccc(Oc4ccccc4)cc3)c3c(N)ncnc32)C1 [IBRUTINIB] | 19.3 | < 10 | 20.1 | 17.4 | – | > 10 | Active |
| C=CC(=O)N1CCC(Cn2nc(-c3ccc(Oc4ccccc4)cc3)c3c(N)ncnc32)CC1 | 11.2 | < 10 | 15.7 | 10.9 | – | – | – |
| C=CC(=O)N1CCCC(Cn2cc(-c3ccc(Oc4ccccc4)cc3)c3c(N)ncnc32)C1 (single isomer, unassigned; form 2) | 1.3 | < 10 | 10.7 | 14.2 | – | – | – |
| C=CS(=O)(=O)N1CCC(Cn2cc(-c3ccc(Oc4ccccc4)cc3)c3c(N)ncnc32)CC1 | 2.7 | < 10 | 3.3 | 3.2 | – | – | – |
| C=CS(=O)(=O)N1CCC(Cn2nc(-c3ccc4c(c3)OCO4)c3c(N)ncnc32)CC1 | 2.8 | 100 (≈ 226 µM) | 14.4 | 10.1 | – | – | – |
| C=CC(=O)N1CCCC(Cn2cc(-c3ccc4c(c3)OCO4)c3c(N)ncnc32)C1 (single isomer, unassigned; form 1) | – | 100 (≈ 247 µM) | – | – | – | – | – |
| CN(C)C/C=C/C(=O)N1CCC(Cn2cc(-c3ccc4c(c3)OCO4)c3c(N)ncnc32)CC1 | – | < 100 | – | – | – | – | – |
| C=CC(=O)N1CCCC(Cn2cc(-c3ccc4c(c3)OCO4)c3c(N)ncnc32)C1 (single isomer, unassigned; form 2) | – | 100 (≈ 247 µM) | – | – | – | – | – |
| C=CC(=O)N1CCCC(Cn2cc(-c3ccc(Oc4ccccc4)cc3)c3c(N)ncnc32)C1 (single isomer, unassigned; form 1) | 2.9 | < 10 | 8.8 | 11.7 | – | – | – |
| CN(C)C/C=C/C(=O)N1CCC(Cn2cc(-c3ccc(Oc4ccccc4)cc3)c3c(N)ncnc32)CC1 | 4.8 | < 10 | 3.2 | 6.6 | – | – | – |
| C=CC(=O)N1CCC(Cn2nc(-c3ccc4c(c3)OCO4)c3c(N)ncnc32)CC1 | – | 100 (≈ 246 µM) | – | – | – | – | – |
| C=CS(=O)(=O)N1CCC(Cn2cc(-c3ccc4c(c3)OCO4)c3c(N)ncnc32)CC1 | 2.5 | 100 (≈ 226 µM) | 3.7 | 3.2 | – | – | – |
